From paper PMC5706701, “Development of a homogenous high-throughput assay for inositol hexakisphosphate kinase 1 activity” (PLoS ONE, 2017)
Counter-ions that a name gives are not always drawn. Like-named read-outs stand apart in the source and are kept apart here.

Target: T1, Human IP6K1 (Homo sapiens, UniProt Q92551)
T1 construct: GST (N, cleaved yes); made in house; host or cells: C43 E. coli, pGEX-6P-2
Test: IP6K1 high-throughput screen of the Sigma LOPAC (ADP-Glo Max, single point);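 further: final compound concentration 10µM in 5% DMSO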
Format: biochemical

[1] = LOPAC single-point screen, ADP-Glo Max luminescence raw signal per well
[2] = LOPAC single-point screen, Z-score from plate average and StDev
[3] = LOPAC single-point screen, ADP-Glo Max raw signal per well
[4] = LOPAC single-point screen, Z-score from raw signal with plate average and StDev
[5] = Sigma LOPAC single-point screen, ADP-Glo Max raw signal per well
[6] = Sigma LOPAC single-point screen, Z-score from plate average and StDev
[7] = LOPAC single-point screen, Z-score relative to plate average and StDev
[8] = LOPAC single-point screen, Z-score against plate average and StDev

T1 sequence (Q92551 whole entry): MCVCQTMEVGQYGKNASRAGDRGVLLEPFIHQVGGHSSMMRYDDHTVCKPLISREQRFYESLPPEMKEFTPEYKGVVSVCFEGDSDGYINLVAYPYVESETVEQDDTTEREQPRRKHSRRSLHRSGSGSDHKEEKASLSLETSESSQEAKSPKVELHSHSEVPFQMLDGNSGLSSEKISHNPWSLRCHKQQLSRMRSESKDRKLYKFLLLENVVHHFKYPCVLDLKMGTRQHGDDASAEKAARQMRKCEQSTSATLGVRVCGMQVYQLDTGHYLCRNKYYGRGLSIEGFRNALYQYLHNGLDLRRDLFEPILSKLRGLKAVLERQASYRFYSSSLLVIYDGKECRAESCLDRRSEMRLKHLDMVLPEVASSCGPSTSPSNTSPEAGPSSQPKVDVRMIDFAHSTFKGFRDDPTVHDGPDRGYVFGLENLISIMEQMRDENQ

SMILES: C[N+]1(C)C2CCC1CC(OC(=O)c1c[nH]c3ccccc13)C2.[I-] (centres unmarked)
- Raw Signal [1]: 66909
- Z-score [2]: 2.115

SMILES: CNCCC(Oc1ccccc1OC)c1ccccc1 (centres unmarked) [Nisoxetine hydrochloride]
- Raw Signal: 55675
- Z-score: 0.2153

SMILES: COC(=O)C1=C(C)NC(C)=C(C(=O)OCCN(C)Cc2ccccc2)C1c1cccc([N+](=O)[O-])c1 (centres unmarked) [Nicardipine hydrochloride]
- Raw Signal [1]: 66364
- Z-score [2]: 2.011

SMILES: CN(C)CCCN1c2ccccc2CCc2ccccc21 [Imipramine hydrochloride]
- Raw Signal [3]: 53704
- Z-score [4]: -0.1159

SMILES: CN1CCN(CCCN2c3ccccc3Sc3ccc(C(F)(F)F)cc32)CC1 [Trifluoperazine dihydrochloride]
- Raw Signal [5]: 58037
- Z-score [6]: 0.3911

SMILES: Cl.NCCNC(=O)c1ccc(Cl)cc1 [Ro 16-6491 hydrochloride]
- Raw Signal [5]: 60492
- Z-score [6]: 0.8681

SMILES: NCCc1c[nH]c2ccccc12 [Tryptamine hydrochloride]
- Raw Signal [5]: 60596
- Z-score [6]: 0.4725

SMILES: CCCN1CCC[C@@H]2Cc3nc(N)ncc3C[C@H]21.Cl.Cl [Quinelorane dihydrochloride]
- Raw Signal [1]: 53110
- Z-score [7]: -0.5661

SMILES: Cc1cc(C)c(NC(=O)C[C@H](CC(=O)O)c2cccc3ccccc23)c(C(=O)N2CCC3(CCCC3)CC2)c1 [CR 2945]
- Raw Signal [3]: 55023
- Z-score [8]: 0.1058

SMILES: c1ccc2c(c1)CCCC2C1=NCCN1 (centres unmarked) [Tetrahydrozoline hydrochloride]
- Raw Signal [3]: 57605
- Z-score [8]: 0.3072

SMILES: NNc1nncc2ccccc12 [Hydralazine hydrochloride]
- Raw Signal [3]: 53853
- Z-score [4]: -0.2669

SMILES: COc1cc2nc(N3CCN(C(=O)OCc4ccccc4)[C@H](C(=O)NC(C)(C)C)C3)nc(N)c2cc1OC [L-765,314]
- Z-score [4]: -0.2706

SMILES: OC[C@H]1O[C@@H](n2cnc3c(NC4CCCCC4)ncnc32)[C@H](O)[C@@H]1O [N6-Cyclohexyladenosine]
- Raw Signal [5]: 60438
- Z-score [6]: 1.07

SMILES: NC(=O)c1cnccn1 [Pyrazinecarboxamide]
- Raw Signal [5]: 58526
- Z-score [6]: 0.4861

SMILES: CN1CCc2ccccc2Cc2[nH]c3ccccc3c2CC1 [LE 300]
- Raw Signal: 53844
- Z-score: -0.09233

SMILES: Cc1nc2c(OCc3ccccc3)cccn2c1CC#N [SCH-28080]
- Raw Signal [1]: 49264
- Z-score [7]: -1.199

SMILES: Nc1cc(=O)[nH]c(N)n1 [2,6-Diamino-4-pyrimidinone]
- Raw Signal [5]: 57244
- Z-score [6]: 0.4218

SMILES: C[C@]12C[C@H](O)[C@H]3[C@@H](CCC4=CC(=O)CC[C@@]43C)[C@@H]1CC[C@@H]2C(=O)CO [Corticosterone]
- Raw Signal [3]: 55741
- Z-score [4]: -0.3826

SMILES: Cc1cccc(C#Cc2ccccc2)n1.Cl
- Raw Signal [1]: 51049
- Z-score [7]: -0.562

SMILES: COc1ccccc1N1CCN(CCN2C(=O)CC3(CCCC3)CC2=O)CC1.Cl.Cl [BMY 7378 dihydrochloride]
- Raw Signal [1]: 52642
- Z-score [7]: -0.9284

SMILES: CCOC(=O)c1ncn2c1CN(C)C(=O)c1cc(F)ccc1-2 [Flumazenil]
- Raw Signal [1]: 52634
- Z-score [7]: -0.5144

SMILES: CNc1ccc2oc(C[C@H]3O[C@@]4(CC[C@H]3C)O[C@H]([C@H](C)C(=O)c3ccc[nH]3)[C@H](C)C[C@H]4C)nc2c1C(=O)O [Calcimycin]
- Raw Signal [1]: 66206
- Z-score [2]: 1.461

SMILES: CCCCC/C=C\C[C@@H](O)/C=C/c1cccc(C[C@@H](O)CCCCO)n1 [U-75302]
- Raw Signal [1]: 63793
- Z-score [2]: 1.509

SMILES: CCS(=O)(=O)Nc1cccc(C(=C2CCCCC2)c2cnc[nH]2)c1 [A-315456]
- Raw Signal [3]: 57716
- Z-score [8]: -0.03471

SMILES: N[C@@H](Cc1ccc(F)cc1)C(=O)O [p-Fluoro-L-phenylalanine]
- Raw Signal [3]: 55466
- Z-score [8]: 0.06072

SMILES: N#CC(C#N)=Cc1ccc(O)c(O)c1 [Tyrphostin 23]
- Raw Signal [1]: 48444
- Z-score [7]: -1.473

SMILES: Cl.O=c1[nH]oc2c1CCNC2 [THIP hydrochloride]
- Raw Signal [5]: 60339
- Z-score [6]: 0.8384
